This note sets out measurements from US9981945B2, “Pyrimidine derivatives as CFTR modulators” (NuBridge BioSciences, priority 2015, dated 2018).

SMILES strings stand for the structures.

T1 sequence (P13569 with tags, fused parts or gaps DEL508-508): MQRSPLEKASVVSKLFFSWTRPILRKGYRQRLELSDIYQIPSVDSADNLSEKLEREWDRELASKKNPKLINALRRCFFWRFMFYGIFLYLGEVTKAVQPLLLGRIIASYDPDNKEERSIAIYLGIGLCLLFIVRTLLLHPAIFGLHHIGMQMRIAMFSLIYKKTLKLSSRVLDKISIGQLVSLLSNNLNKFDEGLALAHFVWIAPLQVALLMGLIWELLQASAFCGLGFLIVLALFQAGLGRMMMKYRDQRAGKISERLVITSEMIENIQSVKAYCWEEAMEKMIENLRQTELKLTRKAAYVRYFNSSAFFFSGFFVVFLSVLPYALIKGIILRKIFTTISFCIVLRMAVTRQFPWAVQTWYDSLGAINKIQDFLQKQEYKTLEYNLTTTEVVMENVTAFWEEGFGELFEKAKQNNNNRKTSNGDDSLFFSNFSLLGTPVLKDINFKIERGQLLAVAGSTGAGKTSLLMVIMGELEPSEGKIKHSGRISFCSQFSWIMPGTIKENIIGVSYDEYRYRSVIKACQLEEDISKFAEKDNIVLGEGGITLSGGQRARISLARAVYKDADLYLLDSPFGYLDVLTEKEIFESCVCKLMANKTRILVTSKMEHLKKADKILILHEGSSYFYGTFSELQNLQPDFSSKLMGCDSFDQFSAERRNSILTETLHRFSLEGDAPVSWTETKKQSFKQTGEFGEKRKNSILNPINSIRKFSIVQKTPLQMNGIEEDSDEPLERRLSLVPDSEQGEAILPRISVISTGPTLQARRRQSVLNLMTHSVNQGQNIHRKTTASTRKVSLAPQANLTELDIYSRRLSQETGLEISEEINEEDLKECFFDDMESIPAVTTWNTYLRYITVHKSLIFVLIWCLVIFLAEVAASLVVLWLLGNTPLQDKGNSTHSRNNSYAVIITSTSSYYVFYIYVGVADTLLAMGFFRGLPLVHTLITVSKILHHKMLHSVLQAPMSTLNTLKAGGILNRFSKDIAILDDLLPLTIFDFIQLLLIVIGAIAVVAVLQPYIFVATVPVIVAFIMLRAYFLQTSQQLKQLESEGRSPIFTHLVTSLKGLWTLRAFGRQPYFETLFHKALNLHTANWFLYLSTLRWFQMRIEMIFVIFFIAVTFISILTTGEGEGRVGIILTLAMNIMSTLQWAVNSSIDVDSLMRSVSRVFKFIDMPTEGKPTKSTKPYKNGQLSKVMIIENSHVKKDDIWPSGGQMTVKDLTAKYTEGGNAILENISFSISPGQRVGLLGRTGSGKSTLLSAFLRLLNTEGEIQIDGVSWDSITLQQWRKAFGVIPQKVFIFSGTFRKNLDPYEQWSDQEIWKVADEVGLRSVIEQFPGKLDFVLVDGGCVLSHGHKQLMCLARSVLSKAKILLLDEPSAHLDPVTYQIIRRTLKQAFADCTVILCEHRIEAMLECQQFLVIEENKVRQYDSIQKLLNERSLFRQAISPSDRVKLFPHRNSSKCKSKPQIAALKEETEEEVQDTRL

This experiment has as its target T1, ΔF508 mutant CFTR (Homo sapiens, UniProt P13569, DEL508-508).
T1 construct: expressed in transfected cells; host or cells: Fischer rat thyroid (FRT) cells
Nature of the experiment: Fluorescence (YFP halide quenching) assay of ΔF508 mutant CFTR activity in FRT cells. To be noted: FRT cells expressing ΔF508-CFTR and YFP-H148Q/I152L, rescued at 27° C. 20-24 h; forskolin 20 μM + test compound 20 μM for 20 min; I− influx rate normalized to forskolin alone. The arrangement: key: fold of mean activity with forskolin alone (I− quenching rate). Format: cell-based. The source says: The ΔF508 mutant CFTR activities of the CFTR modulators are detected using the Fluorescence Assay developed by Pedemonte (Pedemonte N., et al., Antihypertensive 1,4-dihydropyridines as correctors of the cystic fibrosis transmembrane conductance regulator channel gating defect caused by cystic fibrosis mutations, Mol. Pharmacol., 2005, 68, 1736-1746).
Fischer rat thyroid (FRT) cells, stably transfected with ΔF508 were retransfected with the YFP-H148Q/I152L fluorescent protein. The cells were plated (100,000 cells/well) on black 96-well microplates with clear plastic bottom (Corning Life Sciences, Acton, Mass.).
The 96-well microplates containing FRT cells expressing F508-CFTR and the halide-sensitive YFP were incubated at 27° C. for 20 to 24 h to allow rescue of the mutant protein to the plasma membrane. After incubation, cells were washed with PBS (containing 137 mM NaCl, 2.7 mM KCl, 8.1 mM Na2HPO4, 1.5 mM KH2PO4, 1 mM CaCl2, and 0.5 mM MgCl2) and stimulated for 20 min with forskolin (20 μM) and test compounds (20 μM) in a final volume of 60 μl. Microplates were then transferred to a microplate reader for CFTR activity determination. Each assay consisted of a continuous 14-s fluorescence reading (5 points per second) with 2 s before and 12 s after injection of 165 μl of an iodide-containing solution (PBS with Cl^− replaced by I^−). Final iodide concentration in the wells was 100 mM. […] To determine I^− influx rate, the final 11 s of the data for each well were fitted with an exponential function to extrapolate initial slope. CFTR activity was determined by measuring the rate of fluorescence quenching induced by extracellular addition of I^−. Data are normalized to the mean activity measured in the presence of forskolin alone.
For the compound `Cl.O=C(Nc1cncnc1OC1CCNCC1)c1ccc(F)c(-c2c(F)cccc2F)n1` [Example 3, 6-(2,6-difluorophenyl)-5-fluoro-N-(4-(piperidin-4-yloxy)pyrimidin-5-yl)picolinamide hydrochloride], the “CFTR Activity” value was 1.3.

On to `Cl.O=C(Nc1cncnc1OCC1CNC1)c1ccc(F)c(-c2c(F)cccc2F)n1` [Example 2, N-(4-(azetidin-3-ylmethoxy)pyrimidin-5-yl)-6-(2,6-difluorophenyl)-5-fluoropicolinamide hydrochloride], for which the “CFTR Activity” value amounted to 0.5.

Take `Cl.Nc1cc(F)c(-c2c(F)cccc2F)nc1C(=O)Nc1cncnc1OCC1CNC1` [Example 32, 3-amino-N-(4-(azetidin-3-ylmethoxy)pyrimidin-5-yl)-6-(2,6-difluorophenyl)-5-fluoropicolinamide hydrochloride]: the “CFTR Activity” value was 1.0.

Consider `O=C(Nc1cncnc1OCCCO)c1ccc(F)c(-c2c(F)cccc2F)n1` [Example 17, 6-(2,6-difluorophenyl)-5-fluoro-N-(4-(3-hydroxypropoxy)pyrimidin-5-yl)picolinamide], for which the “CFTR Activity” value came out at 0.2.

`Cl.Nc1cc(C(F)(F)F)c(-c2c(F)cccc2F)nc1C(=O)Nc1cncnc1OC1CCNCC1` [Example 51, 3-amino-6-(2,6-difluorophenyl)-N-(4-(piperidin-4-yloxy)pyrimidin-5-yl)-5-(trifluoromethyl)picolinamide hydrochloride]: the “CFTR Activity” value worked out at 4.0.

Regarding `Cl.O=C(Nc1cncnc1OC1CNC1)c1ccc(F)c(-c2c(F)cccc2F)n1` [Example 9, N-(4-(azetidin-3-yloxy)pyrimidin-5-yl)-6-(2,6-difluorophenyl)-5-fluoropicolinamide hydrochloride], the “CFTR Activity” value came to 0.4.

In the case of `O=C(Nc1cncnc1OCCC(O)CO)c1ccc(F)c(-c2c(F)cccc2F)n1` (stereo not shown) [Example 21, 6-(2,6-difluorophenyl)-N-(4-(3,4-dihydroxybutoxy)pyrimidin-5-yl)-5-fluoropicolinamide], the “CFTR Activity” value came out at 0.05.

As to `CNCCCOc1ncncc1NC(=O)c1ccc(F)c(-c2c(F)cccc2F)n1.Cl` [Example 13, 6-(2,6-difluorophenyl)-5-fluoro-N-(4-(3-(methylamino)propoxy)pyrimidin-5-yl)picolinamide hydrochloride], the “CFTR Activity” value was found to be 0.5.

With `Cl.O=C(Nc1cncnc1OC1CCNCC1)c1ccc(F)c(-c2ccncc2)n1` [Example 39, 3-fluoro-N-(4-(piperidin-4-yloxy)pyrimidin-5-yl)-[2,4′-bipyridine]-6-carboxamide hydrochloride], the “CFTR Activity” value is 0.5.

With `Cl.Nc1cc(C(F)(F)F)c(-c2c(F)cccc2F)nc1C(=O)Nc1cncnc1OCC1CCNCC1` [Example 49, 3-amino-6-(2,6-difluorophenyl)-N-(4-(piperidin-4-ylmethoxy)pyrimidin-5-yl)-5-(trifluoromethyl)picolinamide hydrochloride], the “CFTR Activity” value came out at 3.2.

Take `Cl.O=C(Nc1cncnc1OC1CCCNCC1)c1nc(-c2c(F)cccc2F)ccc1F` (stereo not shown) [Example 40, N-(4-(azepan-4-yloxy)pyrimidin-5-yl)-6-(2,6-difluorophenyl)-3-fluoropicolinamide hydrochloride]: the “CFTR Activity” value was 1.9.

As to `Cl.NCC(CO)COc1ncncc1NC(=O)c1ccc(F)c(-c2c(F)cccc2F)n1` (stereo not shown) [Example 56, N-(4-(3-amino-2-(hydroxymethyl)propoxy)pyrimidin-5-yl)-6-(2,6-difluorophenyl)-5-fluoropicolinamide hydrochloride], the “CFTR Activity” value is 2.5.

Turning to `O=C(Nc1cncnc1OCCCCO)c1ccc(F)c(-c2c(F)cccc2F)n1` [Example 19, 6-(2,6-difluorophenyl)-5-fluoro-N-(4-(4-hydroxybutoxy)pyrimidin-5-yl)picolinamide], the “CFTR Activity” value is given as 0.3.

With `Cl.NCC(CCl)COc1ncncc1NC(=O)c1ccc(F)c(-c2c(F)cccc2F)n1` (stereo not shown) [Example 30, N-(4-(3-amino-2-(chloromethyl)propoxy)pyrimidin-5-yl)-6-(2,6-difluorophenyl)-5-fluoropicolinamide hydrochloride], the “CFTR Activity” value is reported as 1.5.

`Cl.NCC(CO)COc1ncncc1NC(=O)c1nc(-c2c(F)cccc2F)c(F)cc1N` (stereo not shown) [Example 57, 3-amino-N-(4-(3-amino-2-(hydroxymethyl)propoxy)pyrimidin-5-yl)-6-(2,6-difluorophenyl)-5-fluoropicolinamide hydrochloride]: the “CFTR Activity” value is 2.1.

For `Cl.Nc1cc(F)c(-c2ccccc2)nc1C(=O)Nc1cncnc1OC1CCNC1` (stereo not shown) [Example 38, 3-amino-5-fluoro-6-phenyl-N-(4-(pyrrolidin-3-yloxy)pyrimidin-5-yl)picolinamide hydrochloride], the “CFTR Activity” value was 1.1.

As for `Cl.Nc1cc(F)c(-c2c(F)cccc2F)nc1C(=O)Nc1cncnc1OCC1CCNC1` (stereo not shown) [Example 28], the “CFTR Activity” value came to 2.3.

On to `Cl.Nc1cc(F)c(-c2c(F)cccc2F)nc1C(=O)Nc1cncnc1OC1CNC1` [Example 31, 3-amino-N-(4-(azetidin-3-yloxy)pyrimidin-5-yl)-6-(2,6-difluorophenyl)-5-fluoropicolinamide hydrochloride], for which the “CFTR Activity” value is 1.0.

Regarding `Cl.NCC(CCl)Oc1ncncc1NC(=O)c1nc(-c2c(F)cccc2F)c(F)cc1N` (stereo not shown) [Example 33, 3-amino-N-(4-((1-amino-3-chloropropan-2-yl)oxy)pyrimidin-5-yl)-6-(2,6-difluorophenyl)-5-fluoropicolinamide hydrochloride], the “CFTR Activity” value was found to be 2.2.

`Cl.NCC(CO)COc1ncncc1NC(=O)c1ccc(C(F)(F)F)c(-c2c(F)cccc2F)n1` (stereo not shown) [Example 58, N-(4-(3-amino-2-(hydroxymethyl)propoxy)pyrimidin-5-yl)-6-(2,6-difluorophenyl)-5-(trifluoromethyl)picolinamide hydrochloride]: the “CFTR Activity” value was 2.8.

For `Cl.O=C(Nc1cncnc1OCC1CNC1)c1ccc(C(F)(F)F)c(-c2c(F)cccc2F)n1` [Example 44, N-(4-(azetidin-3-ylmethoxy)pyrimidin-5-yl)-6-(2,6-difluorophenyl)-5-(trifluoromethyl)picolinamide hydrochloride], the “CFTR Activity” value was 1.8.

Regarding `Cl.O=C(Nc1cncnc1OC1CCNC1)c1ccc(F)c(-c2c(F)cccc2F)n1` (stereo not shown) [Example 4, 6-(2,6-difluorophenyl)-5-fluoro-N-(4-(pyrrolidin-3-yloxy)pyrimidin-5-yl)picolinamide hydrochloride], the “CFTR Activity” value came out at 0.7.

Turning to `O=C(Nc1cncnc1OCC1CCOCC1)c1ccc(F)c(-c2c(F)cccc2F)n1` [Example 22, 6-(2,6-difluorophenyl)-5-fluoro-N-(4-((tetrahydro-2H-pyran-4-yl)methoxy)pyrimidin-5-yl)picolinamide], the “CFTR Activity” value turned out to be 0.1.

With `Cl.NCCCCOc1ncncc1NC(=O)c1nc(-c2c(F)cccc2F)c(F)cc1N` [Example 36, 3-amino-N-(4-(4-aminobutoxy)pyrimidin-5-yl)-6-(2,6-difluorophenyl)-5-fluoropicolinamide], the “CFTR Activity” value is reported as 2.4.

`Cl.O=C(Nc1cncnc1OC1CCCNCC1)c1ccc(C(F)(F)F)c(-c2c(F)cccc2F)n1` (stereo not shown) [Example 42, N-(4-(azepan-4-yloxy)pyrimidin-5-yl)-6-(2,6-difluorophenyl)-5-(trifluoromethyl)picolinamide hydrochloride]: the “CFTR Activity” value is 2.4.
